Where two headings read alike, the source gives them in different places.
How the values were obtained:
Assay type in all cases: cell-based
[1] = test system: MCF-7; experiment: MTT cell viability assay, MCF-7; conditions: Homo sapiens, MTT, 72-hour incubation, read-out: IC50/μM MCF-7
Description: (§1) Cells were then treated with compound at various concentrations in 0.2 mL media. After the 72-hour incubation period, cells were washed in PBS (3×100 μL), and 10 μL MTT reagent was added with 100 μL fresh media. Cells were then incubated for 4 hr in a humidified chamber at 37° C. with 5% CO2. Insoluble formazan crystals were solubilized by addition of 0.1 mL detergent solution (4 hr at room temp., dark). Resulting colored solutions were then quantified at an absorbance of 570 nm.

[2] = test system: MDA-MB-231; experiment: MTT cell viability assay, MDA-MB-231; conditions: Homo sapiens
Description: as §1

[3] = test system: MEF (C57BL/6); experiment: MTT cell viability assay, MEF (C57BL/6); conditions: Mus musculus
Description: as §1

[4] = MTT, 72-hour incubation, read-out: IC50/μM MEF (C57BL/6)
[5] = MDA-MB-231, 72 h, 72-hour incubation
[6] = 72 h, read-out: IC50/μM MEF (C57BL/6), MTT, 72-hour incubation

SMILES	IC50 ([1]; MCF7)	IC50 ([2]; MDA-MB-231, 72-hour incubation)	IC50 [3, 4]	IC50 ([1]; MCF7, 72 h)	IC50 [2, 5]	IC50 [3, 6]
CCc1ccc2c(c1)S/C(=c1/s/c(=C\c3scc[n+]3Cc3c(C)cccc3C)n(CC)c1=O)N2C [JG-343]	0.22 ± 0.02 µM	0.25 ± 0.01 µM	0.64 ± 0.01 µM	–	–	–
CCn1c(=O)/c(=C2\Sc3cc(OC)ccc3N2C)s/c1=C\c1scc[n+]1Cc1ccccc1OC [JG-352]	–	–	–	0.076 ± 0.005 µM	0.062 ± 0.006 µM	0.77 ± 0.03 µM
CCn1c(=O)/c(=C2\Sc3cc(SC)ccc3N2C)s/c1=C\c1scc[n+]1Cc1c(C)cccc1C [JG-355]	0.28 ± 0.02 µM	0.21 ± 0.01 µM	1.5 ± 0.1 µM	–	–	–
CCn1c(=O)/c(=C2\Sc3cc(SC)ccc3N2C)s/c1=C\c1scc[n+]1Cc1ccccc1C(=O)OC [JG-357]	0.25 ± 0.01 µM	0.14 ± 0.01 µM	3.5 ± 0.2 µM	–	–	–
CCn1c(=O)/c(=C2\Sc3cc(SC)ccc3N2C)s/c1=C\c1scc[n+]1Cc1ccccc1OC [JG-358]	0.22 ± 0.01 µM	0.11 ± 0.01 µM	1.6 ± 0.1 µM	–	–	–
CCn1c(=O)/c(=C2\Sc3cc(SC)ccc3N2C)s/c1=C\c1scc[n+]1Cc1cc(C)sc1C [JG-359]	0.21 ± 0.01 µM	0.25 ± 0.01 µM	1.6 ± 0.1 µM	–	–	–
CCn1c(=O)/c(=C2\Sc3cc(C#N)ccc3N2C)s/c1=C\c1scc[n+]1Cc1ccccc1 [JG-360]	1.3 ± 0.1 µM	2.3 ± 0.1 µM	2.3 ± 0.1 µM	–	–	–
CCn1c(=O)/c(=C2\Sc3ccc(C)cc3N2C)s/c1=C\c1scc[n+]1Cc1c(Cl)cccc1Cl [JG-361]	–	–	–	0.088 ± 0.008 µM	0.054 ± 0.006 µM	0.55 ± 0.03 µM
CCn1c(=O)/c(=C2\Sc3ccc(C)cc3N2C)s/c1=C\c1scc[n+]1Cc1ccccc1C [JG-366]	0.19 ± 0.01 µM	0.22 ± 0.02 µM	0.99 ± 0.04 µM	–	–	–
CCn1c(=O)/c(=C2\Sc3ccc(C)cc3N2C)s/c1=C\c1scc[n+]1Cc1ccccc1OC(F)(F)F [JG-368]	–	–	–	0.089 ± 0.006 µM	0.18 ± 0.01 µM	1.4 ± 0.1 µM
CCn1c(=O)/c(=C2\Sc3ccc(C)cc3N2C)s/c1=C\c1scc[n+]1Cc1occc1C(=O)OC [JG-370]	0.22 ± 0.01 µM	0.18 ± 0.02 µM	1.2 ± 0.1 µM	–	–	–
CCn1c(=O)/c(=C2\Sc3cc(C)ccc3N2C)s/c1=C\c1scc[n+]1Cc1ccccc1OC [JG-375]	–	–	–	0.071 ± 0.006 µM	0.082 ± 0.01 µM	0.96 ± 0.03 µM
CCn1c(=O)/c(=C2\Sc3ccc(OC)cc3N2C)s/c1=C\c1scc[n+]1Cc1ccccc1 [JG-376]	–	–	1 ± 0.1 µM	0.37 ± 0.02 µM	0.36 ± 0.05 µM	–
CCn1c(=O)/c(=C2\Sc3cc(C)ccc3N2C)s/c1=C\c1scc[n+]1CCc1ccccc1Cl [JG-380]	0.2 ± 0.02 µM	0.25 ± 0.03 µM	0.94 ± 0.03 µM	–	–	–
CCn1c(=O)/c(=C2\Sc3cc(Cl)ccc3N2C)s/c1=C\c1scc[n+]1CCc1cccc(Cl)c1 [JG-381]	0.55 ± 0.03 µM	0.62 ± 0.05 µM	2.3 ± 0.2 µM	–	–	–
CCn1c(=O)/c(=C2\Sc3cc(C)ccc3N2C)s/c1=C\c1scc[n+]1CCc1cccc(Cl)c1 [JG-382]	0.59 ± 0.03 µM	0.46 ± 0.06 µM	1.2 ± 0.1 µM	–	–	–
CCn1c(=O)/c(=C2\Sc3cc(Cl)ccc3N2C)s/c1=C\c1scc[n+]1CCc1cccc(C(F)(F)F)c1 [JG-383]	0.78 ± 0.06 µM	0.74 ± 0.08 µM	2.3 ± 0.2 µM	–	–	–
CCn1c(=O)/c(=C2\Sc3cc(C)ccc3N2C)s/c1=C\c1scc[n+]1CCc1cccc(C(F)(F)F)c1 [JG-384]	0.62 ± 0.08 µM	0.68 ± 0.1 µM	1.1 ± 0.1 µM	–	–	–
CCn1c(=O)/c(=C2\Sc3cc(Cl)ccc3N2C)s/c1=C\c1scc[n+]1CCc1ccc(Cl)cc1 [JG-385]	0.69 ± 0.05 µM	0.61 ± 0.05 µM	4.4 ± 0.3 µM	–	–	–
CCn1c(=O)/c(=C2\Sc3cc(C)ccc3N2C)s/c1=C\c1scc[n+]1CCc1ccc(Cl)cc1 [JG-386]	0.53 ± 0.05 µM	0.28 ± 0.03 µM	1.7 ± 0.1 µM	–	–	–
CCn1c(=O)/c(=C2\Sc3cc(Cl)ccc3N2C)s/c1=C\c1scc[n+]1CCc1ccc(C(F)(F)F)cc1 [JG-387]	0.78 ± 0.09 µM	0.74 ± 0.04 µM	> 10 µM	–	–	–
CCn1c(=O)/c(=C2\Sc3cc(C)ccc3N2C)s/c1=C\c1scc[n+]1CCc1ccc(C(F)(F)F)cc1 [JG-388]	0.5 ± 0.04 µM	0.62 ± 0.07 µM	1.6 ± 0.1 µM	–	–	–
CCn1c(=O)/c(=C2\Sc3cc(Cl)ccc3N2C)s/c1=C\c1scc[n+]1CCc1ccccc1OC [JG-389]	0.86 ± 0.08 µM	0.27 ± 0.01 µM	2.4 ± 0.1 µM	–	–	–
CCn1c(=O)/c(=C2\Sc3cc(C)ccc3N2C)s/c1=C\c1scc[n+]1CCc1ccccc1OC [JG-390]	0.31 ± 0.04 µM	0.12 ± 0.01 µM	1.2 ± 0.1 µM	–	–	–
CCn1c(=O)/c(=C2\Sc3cc(Cl)ccc3N2C)s/c1=C\c1scc[n+]1CCc1ccccc1C [JG-391]	0.68 ± 0.04 µM	0.26 ± 0.01 µM	2.5 ± 0.2 µM	–	–	–
CCn1c(=O)/c(=C2\Sc3cc(C)ccc3N2C)s/c1=C\c1scc[n+]1CCc1ccccc1C [JG-392]	0.35 ± 0.03 µM	0.19 ± 0.02 µM	1.2 ± 0.1 µM	–	–	–
CCn1c(=O)/c(=C2\Sc3cc(OC)ccc3N2C)s/c1=C\c1scc[n+]1CCc1cccc(C(F)(F)F)c1 [JG-393]	0.68 ± 0.13 µM	0.21 ± 0.01 µM	2.1 ± 0.1 µM	–	–	–
CCn1c(=O)/c(=C2\Sc3cc(OC)ccc3N2C)s/c1=C\c1scc[n+]1CCc1cccc(Cl)c1 [JG-394]	0.56 ± 0.06 µM	0.24 ± 0.01 µM	2.3 ± 0.1 µM	–	–	–
CCn1c(=O)/c(=C2\Sc3cc(OC)ccc3N2C)s/c1=C\c1scc[n+]1CCc1ccc(C(F)(F)F)cc1 [JG-395]	0.51 ± 0.06 µM	0.42 ± 0.03 µM	2.9 ± 0.1 µM	–	–	–

Second part, led by results:

IC50 ([1]; MCF7)	IC50 ([2]; MDA-MB-231, 72-hour incubation)	SMILES	IC50 [3, 4]	IC50 ([1]; MCF7, 72 h)	IC50 [2, 5]	IC50 [3, 6]
0.087 ± 0.007 µM	0.17 ± 0.01 µM	CCc1ccc2c(c1)S/C(=c1/s/c(=C\c3scc[n+]3Cc3ccccc3SC(F)(F)F)n(CC)c1=O)N2C [JG-344]	0.46 ± 0.03 µM	–	–	–
0.11 ± 0.01 µM	0.073 ± 0.007 µM	CCc1ccc2c(c1)S/C(=c1/s/c(=C\c3scc[n+]3Cc3ccccc3OC)n(CC)c1=O)N2C [JG-346]	0.71 ± 0.03 µM	–	–	–
0.095 ± 0.008 µM	0.21 ± 0.01 µM	CCc1ccc2c(c1)S/C(=c1/s/c(=C\c3scc[n+]3Cc3cc(C)sc3C)n(CC)c1=O)N2C [JG-347]	0.6 ± 0.01 µM	–	–	–
0.1 ± 0.01 µM	0.1 ± 0.01 µM	CCn1c(=O)/c(=C2\Sc3cc(OC)ccc3N2C)s/c1=C\c1scc[n+]1Cc1c(Cl)cccc1Cl [JG-348]	1.1 ± 0.1 µM	–	–	–
0.12 ± 0.01 µM	0.23 ± 0.01 µM	CCn1c(=O)/c(=C2\Sc3cc(OC)ccc3N2C)s/c1=C\c1scc[n+]1Cc1c(C)cccc1C [JG-349]	1.1 ± 0.1 µM	–	–	–
0.059 ± 0.007 µM	0.1 ± 0.01 µM	CCn1c(=O)/c(=C2\Sc3cc(OC)ccc3N2C)s/c1=C\c1scc[n+]1Cc1ccccc1SC(F)(F)F [JG-350]	1.2 ± 0.1 µM	–	–	–
0.14 ± 0.01 µM	0.11 ± 0.01 µM	CCn1c(=O)/c(=C2\Sc3cc(OC)ccc3N2C)s/c1=C\c1scc[n+]1Cc1ccccc1C(=O)OC [JG-351]	1.6 ± 0.1 µM	–	–	–
0.15 ± 0.01 µM	0.15 ± 0.01 µM	CCn1c(=O)/c(=C2\Sc3cc(OC)ccc3N2C)s/c1=C\c1scc[n+]1Cc1cc(C)sc1C [JG-353]	1.1 ± 0.1 µM	–	–	–
0.13 ± 0.01 µM	0.096 ± 0.01 µM	CCn1c(=O)/c(=C2\Sc3cc(SC)ccc3N2C)s/c1=C\c1scc[n+]1Cc1c(Cl)cccc1Cl [JG-354]	1.1 ± 0.1 µM	–	–	–
0.19 ± 0.02 µM	0.23 ± 0.01 µM	CCn1c(=O)/c(=C2\Sc3ccc(C)cc3N2C)s/c1=C\c1scc[n+]1Cc1c(C)cccc1C [JG-362]	2.3 ± 0.1 µM	–	–	–
0.067 ± 0.005 µM	0.084 ± 0.012 µM	CCn1c(=O)/c(=C2\Sc3ccc(C)cc3N2C)s/c1=C\c1scc[n+]1Cc1ccccc1SC(F)(F)F [JG-363]	2.1 ± 0.1 µM	–	–	–
0.15 ± 0.01 µM	0.11 ± 0.01 µM	CCn1c(=O)/c(=C2\Sc3ccc(C)cc3N2C)s/c1=C\c1scc[n+]1Cc1ccccc1C(=O)OC [JG-364]	2.3 ± 0.2 µM	–	–	–
0.11 ± 0.01 µM	0.16 ± 0.02 µM	CCn1c(=O)/c(=C2\Sc3ccc(C)cc3N2C)s/c1=C\c1scc[n+]1Cc1ccccc1Cl [JG-365]	0.42 ± 0.02 µM	–	–	–
0.12 ± 0.01 µM	0.22 ± 0.02 µM	CCn1c(=O)/c(=C2\Sc3ccc(C)cc3N2C)s/c1=C\c1scc[n+]1Cc1ccccc1Br [JG-367]	0.54 ± 0.02 µM	–	–	–
0.063 ± 0.004 µM	0.12 ± 0.01 µM	CCn1c(=O)/c(=C2\Sc3ccc(C)cc3N2C)s/c1=C\c1scc[n+]1Cc1ccsc1C(=O)OC [JG-369]	0.44 ± 0.02 µM	–	–	–
0.069 ± 0.004 µM	0.07 ± 0.01 µM	CCn1c(=O)/c(=C2\Sc3cc(C)ccc3N2C)s/c1=C\c1scc[n+]1Cc1c(Cl)cccc1Cl [JG-371]	0.68 ± 0.02 µM	–	–	–
0.18 ± 0.01 µM	0.68 ± 0.16 µM	CCn1c(=O)/c(=C2\Sc3cc(C)ccc3N2C)s/c1=C\c1scc[n+]1Cc1c(C)cccc1C [JG-372]	0.67 ± 0.01 µM	–	–	–
0.095 ± 0.005 µM	0.22 ± 0.03 µM	CCn1c(=O)/c(=C2\Sc3cc(C)ccc3N2C)s/c1=C\c1scc[n+]1Cc1ccccc1SC(F)(F)F [JG-373]	0.44 ± 0.03 µM	–	–	–
0.16 ± 0.01 µM	0.15 ± 0.01 µM	CCn1c(=O)/c(=C2\Sc3cc(C)ccc3N2C)s/c1=C\c1scc[n+]1Cc1ccccc1C(=O)OC [JG-374]	0.69 ± 0.03 µM	–	–	–
0.12 ± 0.01 µM	0.19 ± 0.03 µM	CCn1c(=O)/c(=C2\Sc3cc(OC)ccc3N2C)s/c1=C\c1scc[n+]1CCc1ccccc1C(F)(F)F [JG-377]	> 10 µM	–	–	–
0.13 ± 0.01 µM	0.14 ± 0.02 µM	CCn1c(=O)/c(=C2\Sc3cc(C)ccc3N2C)s/c1=C\c1scc[n+]1CCc1ccccc1C(F)(F)F [JG-378]	0.87 ± 0.03 µM	–	–	–
0.18 ± 0.01 µM	0.2 ± 0.03 µM	CCn1c(=O)/c(=C2\Sc3cc(OC)ccc3N2C)s/c1=C\c1scc[n+]1CCc1ccccc1Cl [JG-379]	0.9 ± 0.01 µM	–	–	–
